Converted amounts (≈) assume the structure as drawn.
Legend:
[1] = tested on: human lung adenocarcinoma A549; experiment: In vitro cell growth inhibition test, MTT assay; format: cell-based; settings: MTT assay 4 days after compound addition
From the text: (§1) Test Example 2 In Vitro Cell Growth Inhibition Test Cells and MTT Assay
(§2) Human squamous lung cancer […], human squamous lung cancer Ma44, human lung adenocarcinoma A549, human colon cancer HT29 and human pancreas cancer PANC-1 were used.

human colon cancer HT29 = experiment: In vitro cell growth inhibition test, MTT assay; format: cell-based; settings: MTT assay 4 days after compound addition
From the text: as §1, §2

[2] = tested on: human squamous lung cancer RERF-RC-AI; experiment: In vitro cell growth inhibition test, MTT assay; format: cell-based; settings: MTT assay 4 days after compound addition
From the text: as §1, §2

[3] = tested on: human pancreas cancer PANC-1; experiment: In vitro cell growth inhibition test, MTT assay; format: cell-based; settings: MTT assay 4 days after compound addition
From the text: as §1, §2

[4] = tested on: human squamous lung cancer Ma44; experiment: In vitro cell growth inhibition test, MTT assay; format: cell-based; settings: MTT assay 4 days after compound addition
From the text: as §1, §2

[5] = tested on: DT-R cells (pRRE3-luc-transfected v-ki-ras-transformed NIH3T3 cells); signal derived from Ras oncogene products; experiment: Inhibitory effect against cellular signaling derived from Ras oncogene products: luciferase reporter, dissociation of DT-R from DT-C activity (MAC); format: cell-based, mouse; settings: minimal tested concentration at which luciferase activities of DT-C cells and DT-R cells dissociated
From the text: Test Example 1 Inhibitory Effect Against Cellular Signaling Derived From Ras Oncogene Products
1) Establishment of Cell Lines Used in Assay
Based on the reporter plasmid (pGV-P (Toyo Ink, Japan)), in which luciferase gene was ligated to SV40-derived minimal promoter, we constructed a plasmid designated pRRE3-luc by inserting 3 copies of chemically synthesized oligonucleotides (Sequence: CAGGATATGACTCT, derived from mouse NVL-3 (M. A. Reddy et al.(1992)Mol. Endocrinol., 6, 1051)) into upstream of the promoter. v-ki-ras-transformed NIH3T3 cells (DT cells, provided by Dr. Makoto Noda (Kyoto Univ., School of medicine)) were transfected with this plasmid by liposome-mediated transfection and transfected cell lines stably incorporated and maintained each plasmid were obtained. We named pGV-P and pRRE3-transfected cell line as DT-C and DT-R, respectively and used in the assay described below.
2) Preparation of Samples
i) All the cell lines were cultured in Dulbecco's Modified Essential Medium (DMEM: 10% Fetal Calf Serum(FCS: Hyclone, USA)) including […] kanamycin (Meiji Seika, Japan) in humidified incubator under condition of 5% CO2 at 37° C.
ii) DT-C and DT-R cells were seeded at 2500 cells/well into flat-bottom 96 well multiplate (Sumitomo bakelite) and incubated for 24 hours.
iii) Test compounds were prepared as 1 mg/ml DMSO solution.
iv) The solution of test compounds were added to the culture. Tested compounds are used at the concentration from […] to 0.51 ng/ml with by 3-fold dilution.
v) After 24 hours, the culture supernatant was completely aspirated and […] of cell-lysing solution (PGC-50 (Toyo Ink, Japan)) was added before cells were dried up. In order to the cells were lysed completely, multiwell plates were left at room temperature for 10 to 30 min. The plates were wrapped up and stored at −20° C. till the day of measurement.
3) Measurement of Samples
i) Melt the samples by putting 96 well multiplate at 37° C. and add 90 μl/well 25 mM Tris (pH 7.5).
ii) Transfer 50 μl of the sample (110 μl) to the 96 well microplate for measurement (Microlite 1 (Dynatech)).
iii) Measure the samples by the luminometer, LUMINOUS CT9000D (Dia-Yatron, Japan). We used Pickagene luminescence kit PGL2000 or LT2.0 (Toyo Ink, Japan) as substrates for luminescence measurement (50 μl/well).
4) Judgment of the Results
i) The luciferase activity of DT-C cells and DT-R cells were plotted in the graph where the relative activity and the compound concentration were expressed as Y-axis and X-axis, respectively. We judged by the degree of dissociation between the activities of DT-C cells and DT-R cells as an index.
ii) Concretely, efficacy of the compound was expressed by two values described below.
a) Among the points of concentration tested, the minimal concentration (Minimal Active Concentration: MAC), at which the activities of DT-C cells and DT-R cells dissociated, was shown as an index of efficacy of the compound.

Row | IC50, A549 [1] [µg/mL] | IC50, HT29 (human colon cancer HT29) [µg/mL] | IC50, RERF-LC-AI [2] [µg/mL] | IC50, PANC-1 [3] [µg/mL] | IC50, Ma44 [4] [µg/mL] | Structure (SMILES) | MAC (Minimal Active Concentration) [5] [µg/mL]
1 | 0.0087 (≈ 0.0191 µM) | 0.0061 (≈ 0.0134 µM) | 0.0051 (≈ 0.0112 µM) | 0.0057 (≈ 0.0125 µM) | 0.0065 (≈ 0.0143 µM) | C=CCNC(=Nc1nc(C)ncc1CSc1nnc(-c2ccc([N+](=O)[O-])cc2)o1)NCC [Compound A-181] | 0.0137
2 | 0.02 (≈ 0.0468 µM) | 0.008 (≈ 0.0187 µM) | 0.008 (≈ 0.0187 µM) | 0.016 (≈ 0.0374 µM) | 0.1 (≈ 0.234 µM) | CCNC(=Nc1nc(C)ncc1CSc1nnc(-c2ccc(N)cc2N)o1)NCC [Compound A-76] | 0.0137
3 | 0.0039 (≈ 0.00862 µM) | 0.002 (≈ 0.00442 µM) | 0.0013 (≈ 0.00287 µM) | 0.0026 (≈ 0.00575 µM) | 0.0021 (≈ 0.00464 µM) | C#CCNC(=Nc1nc(C)ncc1CSc1nnc(-c2ccc([N+](=O)[O-])cc2)o1)NCC [Compound A-183] | 0.00457
4 | 0.013 (≈ 0.0338 µM) | 0.0084 (≈ 0.0218 µM) | 0.0067 (≈ 0.0174 µM) | 0.015 (≈ 0.039 µM) | 0.032 (≈ 0.0832 µM) | CNC(=Nc1nc(C)ncc1CSc1nnc(-c2ccccc2N)o1)NC [Compound A-70] | 0.123
5 | 0.57 (≈ 1.42 µM) | 0.071 (≈ 0.177 µM) | 0.082 (≈ 0.205 µM) | 0.17 (≈ 0.425 µM) | 0.38 (≈ 0.949 µM) | CCNC(=Nc1ncncc1CSc1nnc(-c2cc[n+]([O-])cc2)o1)NCC [Compound D-42] | –
6 | 0.052 | 0.01 | 0.012 | 0.017 | 0.016 | CCCNC(=Nc1nc(C)ncc1CSc1nnc(-c2ccc([N+](=O)[O-])cc2)o1)NCC.Cl [Compound A-188] | 0.0137
7 | 0.063 (≈ 0.153 µM) | 0.021 (≈ 0.051 µM) | 0.017 (≈ 0.0413 µM) | 0.037 (≈ 0.0899 µM) | 0.052 (≈ 0.126 µM) | CCNC(=Nc1nc(C)ncc1CSc1nnc(-c2ccccc2C)o1)NCC [Compound A-78] | –
8 | 0.056 (≈ 0.127 µM) | 0.033 (≈ 0.0749 µM) | 0.016 (≈ 0.0363 µM) | 0.028 (≈ 0.0636 µM) | 0.049 (≈ 0.111 µM) | Cc1ncc(CSc2nnc(-c3ccc(N)cc3)o2)c(N=C(NC(C)C)NC(C)C)n1 [Compound A-166] | 0.123
9 | 0.052 (≈ 0.114 µM) | 0.01 (≈ 0.0219 µM) | 0.012 (≈ 0.0263 µM) | 0.017 (≈ 0.0372 µM) | 0.016 (≈ 0.035 µM) | CCCNC(=Nc1nc(C)ncc1CSc1nnc(-c2ccc([N+](=O)[O-])cc2)o1)NCC [Compound A-135] | 0.0137
10 | 0.014 (≈ 0.0316 µM) | 0.0063 (≈ 0.0142 µM) | 0.002 (≈ 0.00452 µM) | 0.0018 (≈ 0.00407 µM) | 0.0026 (≈ 0.00588 µM) | CCCNC(=Nc1ncncc1CSc1nnc(-c2ccc([N+](=O)[O-])cc2)o1)NCC [Compound A-179] | 0.0137
11 | 0.014 (≈ 0.0318 µM) | – | – | 0.0088 (≈ 0.02 µM) | 0.025 (≈ 0.0567 µM) | CCNC(=Nc1ncncc1CSc1nnc(-c2ccccc2NC(C)=O)o1)NCC [Compound A-57] | 0.0137
12 | 0.022 (≈ 0.0552 µM) | 0.012 (≈ 0.0301 µM) | 0.018 (≈ 0.0452 µM) | 0.016 (≈ 0.0402 µM) | 0.039 (≈ 0.0979 µM) | CCNC(=Nc1nc(C)ncc1CSc1nnc(-c2ccccc2N)o1)NC [Compound A-1] | 0.0412
